Data taken from US11465987B2, “Compounds for treatment of cancer” (ONCTERNAL THERAPEUTICS, INC., priority 2012, dated 2022).
Read-outs that look alike come from different tables or passages of the source.

Legend:
[1] = system: DU 145 human prostate cancer cell line; assay: Cytotoxicity (SRB) assay, DU 145; format: cell-based
From the text: (§1) Cells were stained with SRB solution.

[2] = system: PC-3 human prostate cancer cell line; assay: cells; settings: Homo sapiens
From the text: as §1

[3] = system: PPC-1 human prostate cancer cell line; assay: Cytotoxicity (SRB) assay, PPC-1; format: cell-based; settings: Homo sapiens, PPC-1, Table 6A; read-out: IC50 ± SEM, PPC-1 (converted)
From the text: as §1

[4] = read-out: IC50 PC-3, SRB assay, prostate cancer PC-3
[5] = read-out: IC50 ± SEM, PC-3, Table 13
[6] = read-out: IC50 ± SEM, PC-3, Table 12
[7] = Homo sapiens, DU-145, Table 6A, read-out: IC50 ± SEM, DU 145
[8] = read-out: IC50 ± SEM, PC-3, Table 6A

“4-Methoxyphenyl(4-(3,4,5-trimethoxyphenyl)-1H-imidazol-2-yl)methanone and 4-methoxyphenyl(5-(3,4,5-trimethoxyphenyl)-1H-imidazol-2-yl)methanone [70y]” showed an IC50 ([1]; Table 13B, read-out: inhibitory effects, DU145) of over 50 µM.
Compound `COc1cc(C(=O)c2cc(-c3ccccc3)n[nH]2)cc(OC)c1OC` [1k, (3-Phenyl-1H-pyrazol-5-yl)(3,4,5-trimethoxyphenyl)methanone] has an IC50 [2, 4] of 0.101 µM.
For `COc1cc(C(=C(C)C)c2csc(-c3ccccc3)n2)cc(OC)c1OC` [2a, 4-(2-Methyl-1-(3,4,5-trimethoxyphenyl)prop-1-enyl)-2-phenylthiazole], the IC50 [2, 4] was 2.47 µM.
In the case of `COc1cc(/C(=C\C#N)c2csc(-c3ccccc3)n2)cc(OC)c1OC` [2c-cis, (E)-3-(2-phenylthiazol-4-yl)-3-(3,4,5-trimethoxyphenyl)acrylonitrile], the IC50 ([2]; read-out: IC50 PC-3) is reported as about 10 µM.
With `COc1cc(/C(=C/C#N)c2csc(-c3ccccc3)n2)cc(OC)c1OC` [2c-trans, (Z)-3-(2-phenylthiazol-4-yl)-3-(3,4,5-trimethoxyphenyl)acrylonitrile] the IC50 ([2]; read-out: IC50 PC-3) was 0.89 µM.
Work on `COc1cc(/C(=N/N)c2csc(-c3ccccc3)n2)cc(OC)c1OC` [2d-cis, (Z)-4-(hydrazono(3,4,5-trimethoxyphenyl)methyl)-2-phenylthiazole] yielded an IC50 [2, 4] of 1.12 µM.
Work on `COc1cc(/C(=N\N)c2csc(-c3ccccc3)n2)cc(OC)c1OC` [2d-trans, (E)-4-(hydrazono(3,4,5-trimethoxyphenyl)methyl)-2-phenylthiazole] yielded an IC50 [2, 4] of 1.04 µM.
Work on `CO/N=C(/c1cc(OC)c(OC)c(OC)c1)c1csc(-c2ccccc2)n1` [2f-cis, (Z)-(2-Phenylthiazol-4-yl)(3,4,5-trimethoxyphenyl)methanone O-methyl oxime] yielded an IC50 [2, 4] of over 10 µM.
Compound `CO/N=C(\c1cc(OC)c(OC)c(OC)c1)c1csc(-c2ccccc2)n1` [2f-trans, (E)-(2-Phenylthiazol-4-yl)(3,4,5-trimethoxyphenyl)methanone O-methyl oxime] has an IC50 [2, 4] of over 10 µM.
`COc1cc(C(=O)Nc2csc(-c3ccccc3)n2)cc(OC)c1OC` [2h, 3,4,5-Trimethoxy-N-(2-phenylthiazol-4-yl)benzamide] gave an IC50 [2, 4] of over 10 µM.
Work on `COc1cc(-c2csc(-c3ccccc3)n2)cc(OC)c1OC` [2i, 2-Phenyl-4-(3,4,5-trimethoxyphenyl)thiazole] yielded an IC50 [2, 4] of over 10 µM.
Work on `COc1cc(/C=C/c2csc(-c3ccccc3)n2)cc(OC)c1OC` [3b, (E)-2-Phenyl-4-(3,4,5-trimethoxystyryl)thiazole] yielded an IC50 ([2]; read-out: IC50 PC-3) of over 10 µM.
Compound `COc1cc(S(=O)(=O)c2cccc(-c3ccccc3)c2)cc(OC)c1OC` [4b, 3-(3,4,5-Trimethoxyphenylsulfonyl)biphenyl] has an IC50 [2, 4] of over 10 µM.
`COc1cc([S+]([O-])c2cccc(-c3ccccc3)c2)cc(OC)c1OC` (centres unmarked) [4c, 3-(3,4,5-Trimethoxyphenylsulfinyl)biphenyl] gave an IC50 [2, 4] of over 10 µM.
With `COc1cc(NS(=O)(=O)c2cccc(-c3ccccc3)c2)cc(OC)c1OC` [4d, N-(3,4,5-Trimethoxyphenyl)biphenyl-3-sulfonamide] the IC50 [2, 4] was over 10 µM.
In the case of `COc1cc(C(=O)c2csc(Nc3ccccc3)n2)cc(OC)c1OC` [5a, (2-(phenylamino)thiazol-4-yl)(3,4,5-trimethoxyphenyl)methanone], the IC50 [2, 4] is reported as 0.057 ± 0.003 µM.
Compound `COc1cc(C(=O)c2csc(Nc3ccc(F)cc3)n2)cc(OC)c1OC` [5c, (2-(p-fluorophenylamino)thiazol-4-yl)(3,4,5-trimethoxyphenyl)methanone] has an IC50 [2, 4] of 0.043 ± 0.001 µM.
Work on `COc1cc(C(=O)c2csc(Nc3ccc(Cl)cc3)n2)cc(OC)c1OC` [5d, (2-(4-chlorophenylamino)thiazol-4-yl)(3,4,5-trimethoxyphenyl)methanone] yielded an IC50 [2, 4] of 0.033 ± 0.001 µM.
With `COc1cc(C(=O)c2c[nH]c(Nc3ccccc3)n2)cc(OC)c1OC` [5e, (2-(phenylamino)-1H-imidazol-4-yl)(3,4,5-trimethoxyphenyl)methanone] the IC50 [2, 4] was over 1 µM.
`COc1ccc(C(=O)c2cn(S(=O)(=O)c3ccccc3)c(-c3ccccc3)n2)cc1` [11ab, (4-methoxyphenyl)(2-phenyl-1-(phenylsulfonyl)-1H-imidazol-4-yl)methanone] showed an IC50 [2, 5] of over 10 µM.
`COc1cccc(C(=O)c2cn(S(=O)(=O)c3ccccc3)c(-c3ccccc3)n2)c1` [11ac, (3-methoxyphenyl)(2-phenyl-1-(phenylsulfonyl)-1H-imidazol-4-yl)methanone] was tested, and the IC50 [2, 5] was over 10 µM.
In the case of `O=C(c1cccc(F)c1)c1cn(S(=O)(=O)c2ccccc2)c(-c2ccccc2)n1` [11ag, (3-fluorophenyl)(2-phenyl-1-(phenylsulfonyl)-1H-imidazol-4-yl)methanone], the IC50 [2, 5] is reported as over 10 µM.
Work on `Cc1ccc(C(=O)c2cn(S(=O)(=O)c3ccccc3)c(-c3ccccc3)n2)cc1` [11ah, (2-phenyl-1-(phenylsulfonyl)-1H-imidazol-4-yl)(p-tolyl)methanone] yielded an IC50 [2, 5] of over 10 µM.
Compound `Cc1ccc(-c2nc(C(=O)c3ccc(F)cc3)cn2S(=O)(=O)c2ccccc2)cc1` [11db, (4-fluorophenyl)(1-(phenylsulfonyl)-2-(p-tolyl)-1H-imidazol-4-yl)methanone] has an IC50 [2, 5] of 0.08 µM.
Compound `COc1ccc(-c2nc(C(=O)c3ccc(F)cc3)cn2C)cc1` [12cba, (4-fluorophenyl)(2-(4-methoxyphenyl)-1-methyl-1H-imidazol-4-yl)methanone] has an IC50 [2, 5] of over 10 µM.
For `CN(C)c1ccc(-c2nc(C(=O)c3ccc(F)cc3)c[nH]2)cc1` [12gb, (2-(4-(dimethylamino)phenyl)-1H-imidazol-4-yl)(4-fluorophenyl)methanone], the IC50 [2, 6] was 0.081 µM.
Work on `COc1cc(C(=O)c2c[nH]c(-c3ccc(C(F)(F)F)cc3)n2)cc(OC)c1OC` [12pa, (2-(4-(trifluoromethyl)phenyl)-1H-imidazol-4-yl)(3,4,5-trimethoxyphenyl)methanone] yielded an IC50 [2, 6] of 0.127 µM.
In the case of `O=C(c1cc(O)c(O)c(O)c1)c1c[nH]c(-c2cc(O)c(O)c(O)c2)n1` [13ea, (3,4,5-trihydroxyphenyl)(2-(3,4,5-trihydroxyphenyl)-1H-imidazol-4-yl)methanone], the IC50 [2, 6] is reported as over 10 µM.
Work on `COc1cc(C(=O)c2cn(S(=O)(=O)c3ccccc3)c(-c3ccc4c(c3)cc(C(=O)c3cc(OC)c(OC)c(OC)c3)n4S(=O)(=O)c3ccccc3)n2)cc(OC)c1OC` [16xaa, (1-(phenylsulfonyl)-2-(1-(phenylsulfonyl)-2-(3,4,5-trimethoxybenzoyl)-1H-indol-5-yl)-1H-imidazol-4-yl)(3,4,5-trimethoxyphenyl)methanone] yielded an IC50 ([2]; read-out: IC50 ± SEM, PC-3) of over 10 µM.
Work on `COc1cc(C(=O)[C@@H]2CSC(c3ccc(O[Si](C)(C)C(C)(C)C)cc3)=N2)cc(OC)c1OC` [58a, (R)-(2-(4-(tert-Butyldimethylsilyloxy)phenyl)-4,5-dihydrothiazol-4-yl)(3,4,5-trimethoxyphenyl)methanone] yielded an IC50 ([2]; read-out: IC50 PC-3) of 0.183 ± 0.024 µM.
Work on `COc1cc(C(=O)c2csc(-c3cc4ccccc4[nH]3)n2)cc(OC)c1OC` [62a, (2-(1H-indol-2-yl)thiazol-4-yl)(3,4,5-trimethoxyphenyl)methanone] yielded an IC50 ([2]; read-out: IC50 PC-3) of 0.024 µM.
`COc1cc(C(=O)c2csc(-c3ccc(CNC(=O)OC(C)(C)C)cc3)n2)cc(OC)c1OC` [68a, tert-Butyl 4-(4-(3,4,5-trimethoxybenzoyl)thiazol-2-yl)benzylcarbamate] showed an IC50 [2, 4] of 3.1 µM.
`COc1cc(C(=O)c2csc(-c3ccccc3)n2)cc(OC)c1OCc1ccccc1` [compound 9] showed an IC50 [1, 7] of about 10 µM, an IC50 [2, 8] of about 10 µM and an IC50 [3] of about 10 µM.
For `Cc1ccc(-c2nc(C(=O)c3ccc(F)cc3)cs2)cc1` [compound 11], the IC50 [1, 7] was over 10 µM, the IC50 [2, 8] was over 10 µM and the IC50 [3] was over 10 µM.
`O=C(c1ccc(F)cc1)c1csc(-c2ccccc2)n1` [compound 12] gave an IC50 [1, 7] of over 10 µM, an IC50 [2, 8] of over 10 µM and an IC50 [3] of over 10 µM.
Compound `O=C(c1ccc(OC(F)(F)F)cc1)c1csc(-c2ccccc2)n1` [compound 13] has an IC50 [1, 7] of over 10 µM, an IC50 [2, 8] of over 10 µM and an IC50 [3] of over 10 µM.
`O=C(c1ccc(F)cc1)c1csc(-c2ccc(F)cc2)n1` [compound 14] gave an IC50 [1, 7] of over 10 µM, an IC50 [2, 8] of over 10 µM and an IC50 [3] of over 10 µM.
`O=C(c1csc(-c2cc(F)c(F)c(F)c2)n1)c1c(F)c(F)c(F)c(F)c1F` [compound 16] showed an IC50 [1, 7] of over 10 µM, an IC50 [2, 8] of over 10 µM and an IC50 [3] of over 10 µM.
In the case of `COc1cc(C(=O)c2csc(-c3ccccc3)n2)cc(OC)c1OC(=O)CCl` [compound 18], the IC50 [1, 7] is reported as about 10 µM, the IC50 [2, 8] is reported as about 10 µM and the IC50 [3] is reported as about 10 µM.
With `O=C(c1ccc2c(c1)OCO2)N1CCC(c2ccccc2)CC1` [compound 19] the IC50 [1, 7] was over 20 µM, the IC50 [2, 8] was over 20 µM and the IC50 [3] was over 20 µM.
In the case of `O=C(c1ccc(F)cc1)N1CCC(c2ccccc2)CC1` [compound 22], the IC50 [1, 7] is reported as over 20 µM, the IC50 [2, 8] is reported as over 20 µM and the IC50 [3] is reported as over 20 µM.
`COc1cc(C(=O)c2csc(-c3ccccc3)n2)cc(OC)c1OC(=O)C(F)(F)F` [compound 23] gave an IC50 [1, 7] of about 10 µM, an IC50 [2, 8] of about 10 µM and an IC50 [3] of about 10 µM.
`COc1cc(-c2nc(C(=O)c3ccc(F)cc3)cn2C(=O)c2ccc(F)cc2)cc(OC)c1OC` [compound 30] showed an IC50 [1, 7] of over 10 µM, an IC50 [2, 8] of over 10 µM and an IC50 [3] of over 10 µM.
`COc1cc(C(=NC#N)c2csc(-c3ccccc3)n2)cc(OC)c1O` [compound 32, N-((4-hydroxy-3,5-dimethoxyphenyl)(2-phenylthiazol-4-yl)methylene)cyanamide] gave an IC50 [2, 8] of 2.29 µM.
`O=C(c1cc(O)c(O)c(O)c1)c1csc(-c2ccccc2)n1` [compound 33] was tested, and the IC50 [1, 7] was over 2 µM, the IC50 [2, 8] was over 2 µM and the IC50 [3] was over 2 µM.
`COc1cc(C(=O)c2csc(-c3ccccc3)n2)cc(OC)c1O` [compound 34] gave an IC50 [1, 7] of over 10 µM, an IC50 [2, 8] of over 10 µM and an IC50 [3] of over 10 µM.
`c1ccc(Nc2nccn2C(c2ccccc2)(c2ccccc2)c2ccccc2)cc1` [d, N-Phenyl-1-trityl-1H-imidazol-2-amine] showed an IC50 [2, 4] of over 1 µM.
`COc1cc(C(=O)c2cn(C(c3ccccc3)(c3ccccc3)c3ccccc3)c(Nc3ccccc3)n2)cc(OC)c1OC` [e, (2-(Phenylamino)-1-trityl-1H-imidazol-4-yl)(3,4,5 trimethoxyphenyl)methanone] was tested, and the IC50 [2, 4] was over 1 µM.
